From ChEMBL document CHEMBL1154323, “Bioactive scalaranes from the Thai sponge Hyrtios gumminae” (J Nat Prod, 2009)
Active and inactive are the calls of the source. The calls are words filed in the database; no cut-off is given here.

Key:
Assay type in all cases: functional, cell-based
HeLa [1] = experiment: Cytotoxicity against human HeLa cells
MDA-MB-231 [2] = experiment: Cytotoxicity against human MDA-MB-231 cells
NCI-H69 [3] = experiment: Cytotoxicity against human adriamycin resistant H69 cells
T47D [4] = experiment: Cytotoxicity against human T47D cells
[5] = Cytotoxicity against human HuCCa1 cells; conditions: HuCC-A1
KB [6] = experiment: Cytotoxicity against human KB cells
HuCC-A1 = experiment: Cytotoxicity against human HuCCa1 cells at >100 uM
NCI-H69 [7] = experiment: Cytotoxicity against human adriamycin resistant H69 cells >100 uM
MDA-MB-231 [8] = experiment: Cytotoxicity against human MDA-MB-231 cells >100 uM
T47D [9] = experiment: Cytotoxicity against human T47D cells >100 uM
KB [10] = experiment: Cytotoxicity against human KB cells >100 uM
HeLa [11] = experiment: Cytotoxicity against human HeLa cells >100 uM

Row | Compound | IC50 (HeLa [1]) [µM] | IC50 (MDA-MB-231 [2]) [µM] | IC50 (NCI-H69 [3]) [µM] | IC50 (T47D [4]) [µM] | IC50 [5] [µM] | IC50 (KB [6]) [µM] | Activity (HuCC-A1) | Activity (NCI-H69 [7]) | Activity (MDA-MB-231 [8]) | Activity (T47D [9]) | Activity (KB [10]) | Activity (HeLa [11])
1 | CO[C@@H]1c2occc2[C@@H](O)C[C@H]2[C@]3(C)CC[C@H]4C(C)(C)CCC[C@]4(C)[C@H]3C[C@@]21C [SIMILAN A] | 125 | 58 | > 125 | 70 | 90 | 75 |  |  |  |  |  | 
2 | CC1(C)CCC[C@]2(C)[C@H]3C[C@@H](O)[C@]4(C)C5=C(C(=O)O[C@H]5O)[C@H](O)C[C@H]4[C@]3(C)CC[C@@H]12 [HYRTIOLIDE] | 22 | 26 |  | 34 | 57 | 12 |  |  |  |  |  | 
3 | CC(=O)O[C@H]1C[C@H]2[C@]3(C)CC[C@H]4C(C)(C)CCC[C@]4(C)[C@H]3C[C@@H](O)[C@]2(C)c2cocc21 [SCALARAFURAN] | 63 | 14 | 51 | 28 | 49 | 58 |  |  |  |  |  | 
4 | CC(C)CCC[C@@H](C)[C@H]1CC[C@H]2[C@@H]3CC=C4C[C@@H](O)CC[C@]4(C)[C@H]3CC[C@]12C |  |  |  |  |  |  | inactive | inactive | inactive | inactive | inactive | inactive
5 | CC1(C)CCC[C@]2(C)[C@H]3C[C@@H](O)[C@]4(C)C5=C(CC[C@H]4[C@]3(C)CC[C@@H]12)COC5=O |  |  |  |  |  |  | inactive | inactive | inactive | inactive | inactive | inactive
6 | CC1(C)CCC[C@]2(C)[C@H]3C[C@](C)(C=O)[C@@H](C[C@H](O)c4ccoc4)[C@]3(C)CC[C@@H]12 [HYRTIOSAL] | 18 | 5.4 | 31 | 9.1 | 9.1 | 7.8 |  |  |  |  |  | 
7 | COc1cc([C@@H]2c3cc4c(cc3[C@@H](O[C@@H]3O[C@@H]5CO[C@@H](C)O[C@H]5[C@H](O)[C@H]3O)[C@H]3COC(=O)[C@H]23)OCO4)cc(OC)c1O [ETOPOSIDE] | 0.4 | 0.3 | 46 | 0.1 | 5.1 | 0.5 |  |  |  |  |  | 
8 | CC1(C)CCC[C@]2(C)[C@H]3C[C@@H](O)[C@]4(C)[C@H]5COC(=O)C5=CC[C@H]4[C@]3(C)CC[C@@H]12 | 23 | 5.9 | 57 | 5.2 | 42 | 7 |  |  |  |  |  | 
